Converted amounts (≈) assume the structure as drawn.
Assays:
[1] = biological target: T1, human FXRalpha ligand binding domain (LBD) (Homo sapiens, UniProt Q96RI1); assay: FRET activity assay (ligand mediated cofactor peptide interaction, LANCE); type: biochemical; conditions: GST-FXR-LBD / biotinylated SRC-1 peptide (676-700)
T1 construct: made in house; host or cells: E. coli BL21(DE3), vector pDEST15
T1 sequence (Q96RI1 187-472 isoform Q96RI1-2): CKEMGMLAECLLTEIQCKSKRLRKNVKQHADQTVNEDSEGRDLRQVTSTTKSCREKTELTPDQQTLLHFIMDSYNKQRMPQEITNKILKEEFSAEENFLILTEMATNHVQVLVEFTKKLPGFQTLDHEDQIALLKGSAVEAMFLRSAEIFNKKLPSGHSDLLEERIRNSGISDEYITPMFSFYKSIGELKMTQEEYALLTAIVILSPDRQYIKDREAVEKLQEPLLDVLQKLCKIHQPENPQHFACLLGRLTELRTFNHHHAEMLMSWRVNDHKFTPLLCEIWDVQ
Experimental: Determination of a ligand mediated cofactor peptide interaction to quantify ligand binding to the nuclear receptor Farnesoid X Receptor (FXR) was performed as follows:
Preparation of human farnesoid X receptor (FXR) alpha ligand binding domain: The human FXRalpha ligand binding domain (LBD) was expressed in E. coli strain BL21(DE3) as an N-terminally glutathione-[…] (GST) tagged fusion protein. The DNA encoding the FXR ligand binding domain was cloned into vector pDEST15 (Invitrogen). Expression was under control of an IPTG inducible T7 promoter. The amino acid boundaries of the ligand binding domain were amino acids 187-472 of Database entry NM_005123 (RefSeq). Expression and purification of the FXR-LBD: An overnight preculture of a transformed E. coli strain was diluted 1:20 in LB-Ampicillin medium and grown at 30° C. to an optical density of OD600=0.4-0.6. Gene expression was then induced by addition of 0.5 mM IPTG. Cells were incubated an additional 6 h at 30° C., 180 rpm. Cells were collected by centrifugation (7000×g, 7 min, room temperature). Per liter of original cell culture, cells were resuspended in 10 ml lysis buffer (50 mM Glucose, 50 mM Tris pH 7.9, 1 mM EDTA and 4 mg/ml lysozyme) and left on ice for 30 min. Cells were then subjected to sonication and cell debris removed via centrifugation (22000×g, 30 min, 4° C.). Per 10 ml of supernatant 0.5 ml prewashed Glutathione 4B sepharose slurry (Qiagen) was added and the suspension kept slowly rotating for 1 h at 4° C. Glutathione 4B sepharose beads were pelleted by centrifugation (2000 g, 15 sec, 4° C.) and washed twice in wash buffer (25 mM Tris, 50 mM KCl, 4 mM MgCl2 and 1M NaCl). The pellet was resuspended in 3 ml elution buffer per liter of original culture (elution buffer: 20 mM Tris, 60 mM KCl, 5 mM MgCl2 and 80 mM glutathione added immediately prior to use as powder). The suspension was left rotating for 15 min at 4° C., the beads pelleted and eluted again with half the volume of elution buffer than the first time. The eluates were pooled and dialysed overnight in 20 mM Hepes buffer (pH 7.5) containing 60 mM KCl, 5 mM MgCl2 as well as 1 mM dithiothreitol and 10% (v/v) glycerol. The protein was analysed by SDS-Page.
The method measures the ability of putative ligands to modulate the interaction between the purified bacterial expressed FXR ligand binding domain (LBD) and a synthetic biotinylated peptide based on residues 676-700 of SRC-1 (LCD2, 676-700). The sequence of the peptide used was B-[…]-COOH where the N-terminus was biotinylated (B). The ligand binding domain (LBD) of FXR was expressed as fusion protein with GST in BL-21 cells using the vector pDEST15. Cells were lysed by sonication, and the fusion proteins purified over glutathione sepharose (Pharmacia) according to the manufacturers instructions. For screening of compounds for their influence on the FXR-peptide interaction, the Perkin Elmer LANCE technology was applied. This method relies on the binding dependent energy transfer from a donor to an acceptor fluorophor attached to the binding partner of interest. For ease of handling and reduction of background from compound fluorescence LANCE technology makes use of generic fluorophore labels and time resolved detection Assays were done in a final volume of 2 5 μl in a 384 well plate, in a Tris-based buffer (20 mM Tris-HCl pH 7,5; 60 mM KCl, 5 mM MgCl2; 35 ng/μl BSA), containing 20-60 ng/well recombinantly expressed FXR-LBD fused to GST, 200-600 nM N-terminally biotinylated peptide, representing SRC1 aminoacids 676-700, 200 ng/well Streptavidin-xIAPC conjugate(Prozyme) and 6-10 ng/well Eu W1024 antiGST (Perkin Elmer). DMSO content of the samples was kept at 1%. After generation of the assay mix and diluting the potentially FXR modulating ligands, the assay was equilibrated for one hour in the dark at room temperature in FIA-plates black 384 well (Greiner). […]

[2] = Plasma protein binding assay (equilibrium dialysis); type: in vitro ADME; conditions: 37° C., extrapolated fraction unbound
Experimental: Equilibrium dialysis is used to determine the extent of binding of a compound to plasma proteins. A semi-permeable membrane separates a protein-containing compartment from a protein-free compartment. The system is allowed to equilibrate at 37° C. The test compound present in each compartment is quantified by LC-MS/MS. The extent of binding is reported as a fraction unbound (fu) value which is calculated as fu=1−(PC−PF)/PC. PC=Test compound concentration in protein-containing compartment. PF=Test compound concentration in protein-free compartment. In addition to using whole plasma, the plasma protein binding assay can be performed using two other ratios of plasma (10% or 50% plasma in buffer v/v). The following equations are used to convert from a fraction unbound at 10% or 50% to a fraction unbound at 100%: […]

[3] = Rat microsomal stability assay; type: in vitro ADME; conditions: liver microsomes, 37° C., NADPH, 45 minute, read-out: Rat liver microsome clearance
Experimental: Compound stability towards rat liver microsomes was determined as follows: The microsomes are incubated with the test compound at 37° C. in the presence of the co-factor, NADPH, which initiates the reaction. The reaction is terminated by the addition of methanol. Following centrifugation, the supernatant is analysed on the LC-MS/MS. The disappearance of test compound is monitored over a 45 minute time period. The In peak area ratio (compound peak area/internal standard peak area) is plotted against time and the gradient of the line determined. Finally, Intrinsic clearance CLint is computed by the following equations: elimination rate konstant (k)=−gradient; t1/2 (min)=0.693/k; V (μl/mg)=volume of incubation (μl)/protein in incubation (mg); CLint (μl/min/mg protein)=V*0.693/t1/2.

[4] = Rat hepatocyte stability assay; type: in vitro ADME; conditions: hepatocytes, 37° C., 60 minute, read-out: Rat hepatocyte clearance
Experimental: Compound stability towards rat hepatocytes was determined as follows: The hepatocytes are incubated with the test compound at 37° C. Samples are removed at the appropriate time points into methanol to terminate the reaction. Following centrifugation, the supernatant is analysed by LC-MS/MS. The disappearance of test compound is monitored over a 60 minute time period. The In peak area ratio (compound peak area/internal standard peak area) is plotted against time and the gradient of the line determined. Finally, half life t1/2 and Intrinsic clearance CLint is computed by the following equations: elimination rate konstant (k)=−gradient; t1/2 (min)=0.693/k; V (μl/10^6 cells)=volume of incubation (μl)/number of cells (*10^6); CLint (μl/min/10^6cells protein)=V*0.693/t1/2.

[5] = Aqueous solubility assay, Protocol B, shake-flask method; type: physicochemical; conditions: aqueous buffer, 10 mM PBS buffer pH 7.4, 1% MeOH, room temperature, read-out: Aqueous solubility pH 7.4 (μM) (±standard deviation), shake-flask method
Experimental: Protocol B, shake-flask method:
Sample preparation: Sample and standard solution preparation is performed by mixing equal volumes of acetonitrile containing the internal standard (1 μM final concentration) with sample and calibration standard solutions (100 μl). After vigorously shaking (10 seconds) the samples are centrifuged (6000 g) for 5 minutes at 20° C. Aliquots of the particle-free supernatants are transferred to 200 μl sample vials and subsequently subjected to LC-MS/MS. Assay procedure: Test concentration was 100 μM in 10 mM PBS buffer pH 7.4 with a final MeOH concentration of 1%. The volume of the incubation solution was 500 μl. Depending on each compound's solubility in MeOH, the stock concentration and the incubation concentration was adapted. The test solutions in quadruplicates were shaken at 300 rpm over a 20 hours period at room temperature, followed by centrifugation at 20000 g for 30 minutes to separate the solid phase. 100 μl of particle free sample are added to 100 μl acetonitrile containing the internal standard. The aqueous solubility of the compounds was determined by measuring the concentration of the PBS buffer supernatant by HPLC-MS/MS.

IC50 [1] [nM] | fraction unbound [2] | microsomal CLint [3] [µL/min/mg] | hepatocyte CLint [4] [µL/min/1e6 cells] | solubility at 20 h [5] [µM] | SMILES
≤ 1000 | 0.0004 | 169 | 2.5 | – | CC(C)c1onc(-c2c(Cl)cccc2Cl)c1COc1ccc(N(C)C(=O)c2ccc(-c3nnn[nH]3)cc2)c(C(F)(F)F)n1 [Example 25, N-(6-((3-(2,6-Dichlorophenyl)-5-isopropylisoxazol-4-yl)methoxy)-2-(trifluoromethyl)pyridin-3-yl)-N-methyl-4-(1H-tetrazol-5-yl)benzamide]
≤ 1000 | – | – | – | 129 (≈ 72.4 µg/mL) | CC(C)c1onc(-c2c(Cl)cccc2Cl)c1COc1cnc(N(C)Cc2cccc(C(=O)O)c2)c(Cl)c1 [Example 32, 3-(((3-Chloro-5-((3-(2,6-dichlorophenyl)-5-isopropylisoxazol-4-yl)methoxy)pyridin-2-yl)(methyl)amino)methyl)benzoic acid]

— patent US20100184809A1, “Heterocyclic FXR Binding Compounds” (PHENEX PHARMACEUTICALS AG, priority 2006, published 2010)
